Key:
[1] = in cyclohexane; cited from earlier work
[2] = Superoxide trapping: reaction of nitrone with potassium superoxide and crown ether in benzene; conditions: for trapping of superoxide radical anion: in vitro, yielding UV-VIS identifiable orange products; for colour change / coloured product upon reaction with potassium superoxide: potassium superoxide (3 or 6 equiv.)
Text: Thus, the amounts of potassium superoxide and crown ether were increased to 5 equivalents. Still no product was observed. The result could be due to the fact that not enough superoxide radical anion was present because of poor solubility of potassium superoxide. Therefore, 20 equivalents of potassium superoxide and crown ether were directly treated with nitrone 22. These conditions gave a product in very low yield which was impossible to identify. Finally, nitrone 22 was directly treated using 6 equivalents of potassium superoxide. […] The product was identified as aldehyde 67 by observing the aldehyde-proton signal and the up-field shifting of the ethyl signal of the azulene ring.
The detection of superoxide with azulenysilane mononitrone 23 was based on the previous method as described (vida supra). Six equivalents of potassium superoxide were used as before. As mentioned earlier, the previous reaction was monitored by observing an orange product on TLC. […] Based on the previous mechanism, it was expected to obtain the end product bis-aldehyde 72. However, ^1H NMR spectral information of the orange end product indicated the loss of the silyl group, and presence of only the mono-aldehyde. The low resolution mass spectrum detected a MH^+ of 448. Unfortunately, it was not possible to purify enough for the NMR characterization. […] It is believed that the superoxide spin adduct that formed was unstable and fragmented into another compound rather than the expected one. The loss of the silyl group could result after rearrangement via a nucleophilic attack on silicon by a second superoxide anion since an excess of superoxide anion was used and due to the high affinity of silicon towards oxygen.
The unidentified end product from superoxide radical anion with nitrone 23 led us to synthesize an analogue, the isoxazoline azulenylsilanenitrone 24, and test it for its possible utility in superoxide detection. Using the same method as described earlier, superoxide was solubilized in benzene by employing in acrown ether. The only difference in this case was the use of three equivalents of potassium superoxide instead of six equivalents. […] As in the previous case, aldehyde product 73 was expected to be formed. […] With HRMS and NMR spectral analyses, the orange product was identified as amide 74.
Guanylhydrazone nitrone 25 is a congener of nitrone 24. Incorporation of guanylhydrazone moiety may make it mitochondriotropic, and thereby render it useful to detect superoxide anion present in the mitochondria. […] The brownish orange end product was isolated and identified as amide 80 using low resolution mass spectrum (MH^+=654) which is analogous to the end product 74. In addition to amide 80, a trace of another orange product was also observed which is identified as amide 81 (MH^+=768) analogous to amide 79.
6 mg of nitrone 22 (0.0163 mmol) was mixed with 6.9 mg of potassium superoxide (0.097 mmol, 6 equiv.) and 8.6 mg of crown ether (0.032 mmol, 2 equiv.) and dissolved the mixture in 1 ml of benzene. The reaction was stirred for 3 hr at room temperature. The product was washed with 10 ml of saturated sodium chloride several times, dried over magnesium sulfate and concentrated. The mixture was purified by column chromatography using 5:5 hexane:ethylacetate to give 2.2 mg of crude 67 (43%). It was not possible to obtain 67 pure enough for definitive NMR characterization. […] When the same reaction was stirred for three days, another orange product was observed. […] Impossible to isolate this product in pure form, the structure was not identified.
20 mg of nitrone 24 was treated with 7.5 mg of potassium superoxide and 18.6 mg of crown ether in 1 ml of benzene. The reaction was stirred for 16 hr at room temperature. The mixture was then washed with 10 ml of saturated sodium chloride several times, dried and concentrated. […]

[3] = Fluorescence and quantum yield of superoxide trapping product in ethanol; assay type: physicochemical; conditions: excitation wavelength 390 nm
Description: The UV-vis (ultra visible) absorption spectrum and fluorescence of chromotropic amide 74 was measured in ethanol. […] The fluorescence signal, indicated by red signal, was obtained by irradiating at the excitation wavelength 390 nm as shown in the spectrum. The wavelength dependence of the intensity of emitted light has been recorded at ˜490 nm (emission). The quantum yield of amide was measured at 2.7%. […] This, in addition to its chromotropic behavior, may bring an advantage over conventional cyclic nitrones which require ESR for superoxide detection.
All of the moisture sensitive reactions have been carried out using syringe septum rubber cap technique under N2 or Ar atmosphere or in a vial by flushing N2 or Ar gas into it. […] All of the reactions were monitored by TLC analysis (Whatman pre-coated silica gel F254 plates, 250 μm layer thickness), and visualization was achieved by 254 nm UV light. The crude reaction mixtures have been purified by column chromatography using 60 A (200-300 mess) on silica gel. ^1H and ^13C NMR spectra were recorded on Bruker AVANCE-400 spectrometer in CDCl3. Chemical shifts were measured in parts per million with residual solvent peak used as an internal standard. ^1H NMR spectra were run at 400 MHz and ^13C NMR spectra were recorder at […] with proton decoupled sequence. […] UV-vis spectrum was recorded using a Varian Cary 50 Bio spectrophotometer. […]

[4] = assay type: physicochemical
Description: Solutol HS 15 is a non-ionic solubilizer and emulsifying agent produced from 1 mole of 12-hydroxystearic acids and 15 moles of ethylene oxide. […] To prepare the concentration of 0.64 mg/ml of nitrone 25 in 3:7 solutol HS 15:1% saline solution, 1 ml of solutol HS 15 was heated until it turned into a clear liquid and cooled to room temperature. Meanwhile, 2.1 mg of nitrone 25 was crushed to a fine powder and dissolved in 1 ml of clear solutol HS 15. It was then diluted with 2.3 ml of 1% saline solution in water with frequent shaking and warming. It was then cool to room temperature to obtained green solution. The green solution was kept in a freezer, and found to be stable. The aqueous formulation of nitrone 25 with solutol HS 15 is believed to be amenable for mitochondrial superoxide detection and other biological studies.

[5] = crown ether, benzene, room temperature

C(#Cc1c2ccccc2c(C#Cc2ccccc2)c2ccccc12)c1ccccc1 [9,10-bis(phenylethynyl)anthracene]
quantum yield (QY) of fluorescence standard [1]: 1.0

CCc1c2cccccc-2c(C=O)c1O[Si](C)(C)C(C)(C)C [aldehyde 67]
stability of aldehyde end product ([2]; under the superoxide reaction conditions, decomposed as reaction proceeded): very unstable

CC(C)(C)NC(=O)c1c2cccccc-2c2c(NC(C)(C)C)c(C(=O)c3ccccc3)c(=N)oc12 [amide 74]
fluorescence emission wavelength [3]: ~490 nm | fluorescence quantum yield [3]: 2.7%

CCc1c2cccccc-2c(/C=[N+](\[O-])C(C)(C)C)c1[Si](C)(C)C(C)(C)C [nitrone 22, 2-terbutyldimethylsilyl-1ethyl-3-azulenylnitrone]
trapping of superoxide radical anion [2]: trap superoxide radical anion efficiently | reaction with superoxide ([2]; one to five equivalents of potassium superoxide and one equivalent of crown ether in benzene, room temperature): No reaction was observed | colour change / coloured product upon reaction with potassium superoxide [2, 5]: less polar orange product

CC(C)(C)/[N+]([O-])=C/c1c2cccccc-2c(C=O)c1[Si](C)(C)C(C)(C)C [nitrone 23, 2-tert-butyldimethylsilyl-3-formyl-azulene-1-nitrone]
trapping of superoxide radical anion [2]: trap superoxide radical anion efficiently | colour change / coloured product upon reaction with potassium superoxide [2, 5]: turned completely from green to orange | time for reaction mixture to turn completely from green to orange ([2]; six equivalents of potassium superoxide, crown ether, benzene): 90 min

CC(C)(C)N1OC(c2ccccc2)=C(C#N)C1c1c2cccccc-2c(/C=[N+](\[O-])C(C)(C)C)c1[Si](C)(C)C(C)(C)C (stereo not shown) [nitrone 24, 2-tert-butyl-3-[2-(tert-butyldimethyl-silanyl)-3-nitrone-azulen-1-yl]-5-phenyl-2,3-dihydro-isoxazole-4-carbonitrile]
trapping of superoxide radical anion [2]: trap superoxide radical anion efficiently | colour change / coloured product upon reaction with potassium superoxide [2, 5]: completely turned into orange solution

[H]/N=C(\N)N/N=C/c1cccc(C#Cc2cccc(C3=C(C#N)C(c4c5cccccc-5c(/C=[N+](\[O-])C(C)(C)C)c4[Si](C)(C)C(C)(C)C)N(C(C)(C)C)O3)c2)c1 (stereo not shown) [nitrone 25, 2-tert-butyl-3-[2-(tert-butyldimethyl-silanyl)-3-nitrone-azulen-1-yl]-5-[3-(3-guanylhydrazone-phenylethynyl)-phenyl]-2,3-dihydro-isoxazole-4-carbonitrile]
trapping of superoxide radical anion [2]: trap superoxide efficiently | trapping of superoxide radical anion ([2]; listed as 25): trap superoxide radical anion efficiently | concentration in solution [4]: 0.64 mg/mL | effect of solutol HS 15 on solubility in water [4]: increase the solubility | stability of solution [4]: stable | water solubility [4]: poorly water soluble

Cc1c2cccccc-2c(C)c1[Si](C)(C)C(C)(C)C [nitrone 40, 2-tert-butyldimethylsilyl-1,3-dimethylazulene]
colour change / coloured product upon reaction with potassium superoxide [2, 5]: turned into brownish orange
